Measurements as given in ChEMBL document CHEMBL5393450, “Compounds inhibiting tdg activity” (2022).

Target: G/T mismatch-specific thymine DNA glycosylase (Homo sapiens) (UniProt Q13569)
Assay: Inhibition of TDG in human HEK293T at 10 uM by Renilla luciferase based reporter assay relative to control
Type: cell-based

G/T mismatch-specific thymine DNA glycosylase (Homo sapiens), sequence (Q13569 whole entry): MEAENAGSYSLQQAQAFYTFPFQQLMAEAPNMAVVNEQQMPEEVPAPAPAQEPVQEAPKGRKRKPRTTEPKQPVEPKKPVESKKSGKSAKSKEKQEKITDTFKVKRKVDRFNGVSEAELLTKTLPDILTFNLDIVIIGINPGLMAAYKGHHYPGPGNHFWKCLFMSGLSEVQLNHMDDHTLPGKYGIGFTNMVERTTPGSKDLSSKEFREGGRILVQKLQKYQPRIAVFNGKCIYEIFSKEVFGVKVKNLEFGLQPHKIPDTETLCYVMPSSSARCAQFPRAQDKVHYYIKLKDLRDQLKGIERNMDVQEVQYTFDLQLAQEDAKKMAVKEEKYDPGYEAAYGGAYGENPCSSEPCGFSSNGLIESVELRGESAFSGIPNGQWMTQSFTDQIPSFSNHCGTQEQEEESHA

inhibition: < 25%
Structure (SMILES): Cc1ccc(C2CCN(CCC(=O)c3ccc4c(c3)OCCO4)C2)cc1 (stereo unspecified)
